Data published in patent publication US20260263401A1, “Topical composition and uses thereof” (UNIVERSIDADE DE COIMBRA, priority 2022, published 2026).
Values joined by “and” are separate entries in the source; they are usually repeats but may differ in a detail not shown here. Equal entries are not always repeated. “Also recorded” adds a separate entry of the source.

Legend:
[1] = test system: NRF2 dependent genes in HaCaT; assay: Expression of NRF2 dependent genes in keratinocytes (real time PCR); format: cell-based, human; details: 6 h
Experimental: HaCaT is cultured with Dulbecco's Modified Eagle's Medium (DMEM) (Sigma-Aldrich, St. Louis, MO, USA), supplemented with 10% (v/v) heat-inactivated fetal bovine serum (FBS), 1% (v/v) antibiotic solution (100 U/mL penicillin, 100 μg/mL streptomycin) (Gibco, Carlsbad, CA, USA), 3.7 g/L sodium bicarbonate and 1 mM sodium pyruvate (Sigma-Aldrich, St. Louis, MO, USA).
In an embodiment, HaCaT cells are seeded in 6-well plates at a density of 6×10^5 cells/well and allowed to adhere for 24 h. After that, cells are incubated for 24 h with exposure medium (control) or treated with 10 mM of NAC, 10 mM of LYS, 8 μM of DNFB, 100 μM of MI, or 10 mM+DNFB, 10 mM LYS+DNFB and 10 mM+MI, 10 mM LYS+MI for 6 h or 24 h.
In an embodiment, total RNA (ribonucleic acid) is extracted from HaCaT treated cells, as previously described by our group [37], with NZYol reagent, according to the manufacturer's instructions and its concentration is determined by OD260 measurement using a NanoDrop spectrophotometer (Thermo Scientific, Wilmington, DE, USA). Samples are stored in RNA Storage Solution at −80° C. until use. Total RNA (1 g) is reverse-transcribed using the iScript Select cDNA Synthesis Kit, and real-time reverse transcriptase-polymerase chain reaction (RT-PCR) reactions are performed, in duplicate for each sample, on a Bio-Rad MyCycler iQ5 (Hercules, CA, USA), as previously described by our group [38].
In an embodiment, after amplification, a threshold is set for each gene and Ct values are calculated for all samples. Gene expression changes are analyzed using Bio-Rad CFX Maestro 1.1 system software (Hercules, CA, USA). The results are normalized using Hprt-1 as the reference gene. Primer sequences are designed using Beacon Designer software version 7.7 (Premier Biosoft International, Palo Alto, CA, USA) and thoroughly tested.

THP-1 cells = assay: Maturation of THP-1 cells assessed by up-regulation of co-stimulatory molecules CD86 and CD54; details: for CD54 and CD86 maturation levels, pre-incubation before allergen: pre-incubation (20 mM) before 24 h DNFB (8 μM) and MI (100 μM); for levels of CD54 and CD86, allergen alone: 24 h, DNFB 8 μM, MI 100 μM
Experimental: In an embodiment, the THP-1 cell line has been used as a dendritic cell (DC) surrogate for skin sensitizers hazard, following the OECD guidelines. […] The THP-1 cells are stabilized overnight at a density of 5×10^5 cells/mL. On the day after, cells are seeded in 12-well plates at a density of 8×10^5 cells/well and incubated for 24 h with medium (control), Dimethyl sulfoxide (DMSO) (allergens solvent) or with 20 mM of each inhibitor of ACD (NAC), (LYS) or mixture (NAC+LYS). In addition, sensitization is induced with the strong skin allergen 1-fluoro-2,4-dinitrobenzene (DNFB) (8 μM) or Methylisothiazolinone (MI) (100 μM) for 24 h. At the end of the incubation period, cells are washed with ice-cold PBS supplemented with 1% (v/v) inactivated FBS, centrifuged at 300×g for 5 min at 4° C. and pellets are dissolved in ice-cold PBS supplemented with 1% (v/v) inactivated FBS. Then, 100 µL of the cell suspension are incubated with, or without, 3 μL of anti-human CD54 antibody (#353111, Biolegend, San Diego, CA, USA) or anti-human CD86 (#305414, Biolegend, San Diego, CA, USA) antibody for 30 min at 4° C. […] A total of 1×10^4 living cells are considered for analysis. The CD86 and CD54 levels are analyzed by flow cytometry with the acquisition channels FL1 and FL4. Based on the geometric mean fluorescence intensity (MFI), the relative fluorescence intensity (RFI) of CD86 and CD54 for positive control cells and chemical-treated cells is calculated according to the following equation: […]

[2] = chelating agent; cited from earlier work
BALB/c mice = assay: Murine local lymph node assay (BRDU-LLNA, flow cytometry); details: for skin ulcerations, allergen alone (mice ears): topical on ears, days 1-3
Experimental: In vivo validation of the efficacy of the hydrogel enriched with the best mixture of molecules, to avoid the development of skin sensitization using the murine local lymph node assay (LLNA)
This event can be confirmed using the in vivo test Local lymph node assay (LLNA), which is evaluated by flow cytometry (FCM) using the OECD Guideline for the testing of chemicals: BRDU (bromodeoxyuridine) ELISA (enzyme linked immunosorbent assay) or FCM 442B, as previously described and revised on OECD TG 442B [41].
During the entire procedure, the daily weight record is made to assess the welfare of the animals. […]
In an embodiment, on day 5, animals are intraperitoneally injected with 100 μl of BrdU mixture (20 mg/mL) in PBS. […] LNCs are stained with trypan blue (Sigma) and counted using a hemocytometer. LNCs (1.5×10^6 cells/mL) are prepared using a commercially FITC BrdU Flow Kit-Catalog No. 559619 (BD Biosciences, San Jose, CA, USA) and further analyzed by flow cytometry using a BD Accuri™ C6 Flow Cytometer (BD Biosciences, San Jose, CA, USA). Stimulation index (SI) values for each sample are calculated using the formula described in the OECD test guideline (TG 442B) [41].

[3] = Cysteine depletion protocol (glutathione in solution depletion); details: FIG. 1A
Experimental: In an embodiment, Cysteine depletion Protocol-Glutathione in solution depletion protocol—“in house development protocol” was applied: • In a test tube, mix 10 μL of the 100 mM test chemical solution with 190 μL of GSH solution (20 μL of GSH 2 mM and 170 μL of PB) and Incubated at RT, protected from light, for 1 h in a tube roller (40 rpm) • […]; [test chemical]f=5 mM; [GSH]f=0.2 mM; • 20 μL of Ellman's reagent 10 mM, a thiol sensitive colorimetric reagent was added. Mix gently by tapping manually in the test tube and incubate for 10 min at RT, in a test tube rotator protected from light; • The absorbance was read in a microplate reader at 405 nm. • Note: For each assay, a fresh Glutathione stock of 50 mM (0.00768 g in 500 μL of PBS) and the second stock of 2 mM in PBS (2 μL of the […] solution+48 μl of PBS) were freshly prepared.
In an embodiment, Control and Test Chemical Preparation was applied: • DNFB is used as the positive control for the assay in every assay run. For the negative control LA is used and for the reference control three types of reference controls are included in each study: • Reference control A is made with the solvent DMSO, with incubation with Ellman's reagent and is used to calculate the maximum fluorescence or absorbance in the presence of CYS containing peptides. […]
Test Chemicals: In an embodiment, test chemicals were pre-weighted into 1.5 mL test tubes and dissolved in 1 mL of DMSO to prepare a 100 mM solution immediately before use. The weight of the test chemical to be added to the vial is determined based on the molecular weight and purity. […]
In an embodiment, for the data analysis, the percent depletion of peptide is determined by using the following formula: […]

[4] = test system: Poly-L-Lysine Hydrobromide (PLL); assay: Lysine depletion protocol (in chemico reactivity towards lysine); details: 20 mM molecule incubated 1 h with DNFB 5 mM; FIG. 1B
Experimental: In an embodiment, a Lysine depletion Protocol—“in house development protocol” was applied, comprising: Dissolve 0.01 g of Poly-L-Lysine Hydrobromide (PLL) (Sigma, P1399) in 100 mL of purified water (use within 2 months). Filter the solution with a syringe filter to remove aggregates and store ate 4° C. for further use. For plate coating add 50 μL of PLL to each well of the 96 black bottom glass microplate (Corning ref 45806) and incubate for 2 hours at 37° C. or 24 h at room temperature.
In an embodiment, after the coating procedure, the contents of the plate were discarded into a sink and the plate is washed 3 times with 200 μL of PBS per well. Blot any residual PBS by firmly tapping the plate upside-down on absorbent paper. 20 mM of each potential ACD inhibitory molecule/mixture is added and incubated with 70 μl of the strong skin sensitizer 1-fluoro-2,4-dinitrobenzene (DNFB) (5 mM in DMSO) for 1h; the mixture was transferred to the plate and incubated for 24 h at 37° C. The contents of the plate were discarded and the wells were washed 3 times with PBS as previously reported. 70 μL of 10 μM Fluorescein-5-Ex-Succinimidyl Ester (FSE) were added and incubated for 1 h in the dark at 37° C. The contents of the plate were discarded; the wells were washed 3 times with PBS as previously stated. The fluorescence was read in a microplate reader (Exc 485±20 nm and Em 530±30 nm). Synergy™ HT plate reader (BioTek Instruments, Inc., Winooski, VT, USA): Bottom read with a sensibility of 50. […]
In an embodiment, Reference control A is made with the solvent DMSO, with incubation with FSE and is used to calculate the maximum fluorescence or absorbance in the presence of LYS. […]
In an embodiment, Test chemicals were pre-weighted into 1.5 mL test tubes and dissolved in 1 mL of DMSO to prepare a 100 mM solution immediately before use. The weight of the test chemical to be added to the vial was determined based on the molecular weight and purity. […]
In an embodiment, for the data Analysis the percentage of peptide depletion is determined by using the following formula: […]

[5] = test system: SkinEthic™ Reconstructed Human Epidermis (RHE); assay: Skin irritation, SkinEthic Reconstructed Human Epidermis (RHE), MTT assay, OECD TG 439; format: cell-based; details: 42 min exposure, 42 h post-incubation, three tissue replicates, relative to PBS control, <50% = irritant, sulfate
Experimental: In an embodiment, skin irritation is evaluated using the SkinEthic™ Reconstructed Human Epidermis (RHE) model (EPISKIN Laboratories, Lyon, France), in compliance with the OECD Test Guideline No. 439-In Vitro Skin Irritation: Reconstructed
Human Epidermis Test Method. The RHE model consists of a differentiated three-dimensional epi-dermal tissue of human keratinocytes grown on a 0.5 cm^2 surface inert polycarbonate filter in a chemically defined medium at the air-liquid interface. Two specific media provided by EPISKIN are used: maintenance and growth media. […] The experiment also includes other inserts treated with PBS or 5% (w/v in water) SDS used as negative and positive controls, respectively. […] Tissue viability is assessed using the MTT (3-(4,5-dimethylthiazol-2-yl)-2,5-diphenyl-2H-tetrazolium bromide) assay. For that, tissues are incubated with MTT (1 mg/mL) at 37° C. for 3h; then the MTT solution was removed, and formazan crystals were dissolved with isopropanol. The absorbance was measured at 570 nm using a SpectraMax Plus 384 Spectrophotometer. […] If the tissue viability value is <50%, the samples are classified as irritants.

[6] = incubated before DNFB, vs DNFB alone
[7] = incubated before MI, vs MI alone

N[C@@H](CCS)C(=O)O [HOMO, homocysteine]
HMOX1 expression [1, 6]: significantly decrease | SOD1 expression [1, 6]: significantly decrease | TRX1 expression [1, 7]: significantly decrease | CD54 and CD86 maturation levels, pre-incubation before allergen (THP-1 cells): significantly decrease

N[C@@H](CCC(=O)N[C@@H](CS)C(=O)NCC(=O)O)C(=O)O [GSH, Glutathione]
HMOX1 expression [1, 6]: significantly decrease | SOD1 expression [1, 6]: significantly decrease | HMOX1 expression [1, 7]: significantly decrease | CD54 and CD86 maturation levels, pre-incubation before allergen (THP-1 cells): significantly decrease

O=C(O)CN(CCN(CC(=O)O)CC(=O)O)CCN(CC(=O)O)CC(=O)O [diethylenetriaminepentaacetic]
prevention of nickel, chromium, and copper dermatitis [2]: can prevent

CSCC[C@H](N)C(=O)O [MET, methionine]
GST expression [1, 7]: significantly decrease | NQO1 expression [1, 7]: significantly decrease | CD54 and CD86 maturation levels, pre-incubation before allergen (THP-1 cells): significantly decrease

Cn1sccc1=O [MI, Methylisothiazolinone, reference compound]
skin ulcerations, allergen alone (mice ears) (BALB/c mice): induce skin ulcerations | levels of CD54 and CD86, allergen alone (THP-1 cells): significantly increases; also recorded: increase

O=[N+]([O-])c1ccc(F)c([N+](=O)[O-])c1 [DNFB, 1-fluoro-2,4-dinitrobenzene, reference compound]
presence of eosinophils in the ears (histology) (BALB/c mice; DNFB treated ears, FIG. 13B (gel 100 mM)): presence of eosinophils | skin ulcerations, allergen alone (mice ears) (BALB/c mice): induce skin ulcerations | levels of CD54 and CD86, allergen alone (THP-1 cells): significantly increases; also recorded: increase

N[C@@H](CS)C(=O)O [CYS, cysteine]
HMOX1 expression [1, 6]: significantly decrease | TRX1 expression [1, 6]: significantly decrease | reactivity of the strong allergen DNFB towards cysteine (Glutathione depletion) [3]: significantly inhibit | reactivity of the strong allergen DNFB towards lysine (Lysine depletion) [4]: significantly inhibit | CD54 and CD86 maturation levels, pre-incubation before allergen (THP-1 cells): significantly decrease

O=C(O)C(S)C(S)C(=O)O (stereo not shown) [DMSA, 2,3 dimercaptosuccinic acid]
CD54 and CD86 maturation levels, pre-incubation before allergen (THP-1 cells): significantly decrease

CCCCCCCCCCCCOS(=O)(=O)[O-].[Na+] [SDS, sodium dodecyl sulfate]
Tissue viability (%) ([5]; listed as SDS (5%)): 1.41% and 1.44% and 1.62% | Tissue viability (%) [5]: significantly decrease
